# In patent publication US20240208950A1, “COMPOSITIONS AND METHODS FOR TREATMENT OF CERVICAL AND OVARIAN CANCER” (SOUTH DAKOTA BOARD OF REGENTS, priority 2021, published 2024):
# What was measured:
# Type in all cases: cell-based, human
# CaSki cells = test: Cell migration (agarose bead, scratch wound, Boyden chamber), CaSki; conditions: 0 and 48 hours
# Method: FIGS. 7B and 7D show the effect of ORM-Br on motility potential of CaSki cells (FIG. 7B) and SiHa cells (FIG. 7D) as predicted by agarose bead assay. The images shown in FIGS. 7A-7D represent the migratory cells (MC) in control and ORM-Br treated groups at 0 and 48 hours. In FIGS. 7B and 7D, AB means agarose beads. In FIGS. 7A-7D the images magnification were at 4.
# Cell motility was performed by in vitro scratch wound assay. Briefly, cells were seeded in a 12-wells plate and after 80-90% confluency a standardized wound was made using a 200 μL micropipette tip. Cells were then treated with Br-ORM (10 μM) and photographed by phase contrast microscopy. […]
# FIG. 14. […] Effect of Br-ORM on cell migration of cervical cancer cells as determined by agarose bead (FIG. 14A), scratch wound healing (FIG. 14B), and Boyden chamber assay (FIG. 14C). […] Closure of wound was determined and photographed using phase contrast microscopy. […] Bar graph represent the quantification of migrated CaSki cells of control and Br-ORM treated groups (FIG. 14C(ii)). […] Effect of Br-ORM treatment on invasion of CaSki cells as determined by a commercially available kit (BD Biosciences) as described in materials and methods. In brief, 24 hours post-treatment of Br-ORM, invaded cells were fixed, stained and counted. […] Bar graph represent the quantification of invaded CaSki cells of control and Br-ORM treated groups (FIG. 14D(ii)). […]
# β-catenin in CaSki cells = test: β-catenin degradation with cyclohexamide (western blot, pulse chase), CaSki; conditions: ORM-Br
# Method: A western blot analysis was conducted to determine the effect of ORM-Br on β-catenin degradation. […] Protein lysates were prepared and subjected to western blot analysis to ascertain the levels of protein of β-catenin in cyclohexamide-treated cells (FIG. 3A) and in ORM-Br and cyclohexamide-treated cells (FIG. 3B).
# [1] = tested on: HPV16 E6 and E7 transcripts in CaSki cells; test: qPCR of HPV E6 and HPV E7 transcripts, CaSki; conditions: 18 hours
# Method: RNA from cervical cancer cells was isolated using Qiagen kit and quantified using NanoDrop instrument 2000 (Thermo Scientific, Waltham, MA, USA). To analyze the expression of miR-200a in control and Br-ORM treated cells, 100 ng total RNA was reverse transcribed into cDNA using specific primers designed for miRNA analysis (Applied Biosystems, Foster City, CA, USA). The expression of this miRNAs was determined by qRT-PCR using the Taqman PCR master mixture and specific primers designed for detection of mature miRNAs (Applied Biosystems). The expression of miRNA was normalized with the expression of endogenous control, RNU6B.
# HPV infections are associated with a majority of cervical cancer cases. The effect of Br-ORM on the expression of HPV E6 and HPV E7 oncogenes in CaSki and SiHa cells was investigated. […] Br-ORM repressed both transcription and translation of E6 and E7 oncogene in cervical cancer cells.
# FIG. 16. Effect of Br-ORM on HPV oncoproteins and tumor suppressor miR-200 in cervical cancer cells. […] Increase expression of tumor suppressor miR200a in cervical cancer cells treated with BR-ORM for 24 hours in comparison to non-treated controls was determined through real time PCR (FIG. 16A(v)-(vii)). […]
smiles,measurement,setting,value
COc1ccc2c(c1)OC(C)(C)C(c1ccc(Br)cc1)C2c1ccc(OCCN2CCCC2)cc1 (stereo not shown) [ORM-Br],cell migration / motility,CaSki cells,inhibits the migration
same,cell migration / motility,CaSki cells; listed as Br-ORM,dose dependent inhibition of migration abilities
same,protein levels of β-catenin relative to cyclohexamide treatment,β-catenin in CaSki cells,significant decrease in protein levels of β-catenin
same,HPV16 E6 and E7 transcripts,[1],significant downregulation
